Measured values: patent US9259482B2, “Conjugates of polymers having a therapeutically active agent and an angiogenesis targeting moiety attached thereto and uses thereof in the treatment of angiogenesis related diseases” (Ramot at Tel-Aviv University Ltd., priority 2008, dated 2016)
Where two headings read alike, the source gives them in different places.

What was measured:
HUVEC [1] = assay: cells; assay type: cell-based, human
Description: (§1) The anti-angiogenesis and anti-proliferative activity of the conjugates described herein was evaluated by the effect of the conjugates on the proliferation of HUVEC, U87 and PANC02 cells.
(§2) HUVEC were plated onto 24-well plate (1×10^4 cells/well) in endothelial cell basal medium 2 (EBM-2; Cambrex, USA) supplemented with 5% fetal bovine serum (FBS). Following 24 hours of incubation (37° C.; 5% CO2) medium was replaced with Endothelial cell growth medium-2 (EGM-2; Cambrex, USA). U87 and PANC02 cells were plated onto 96 well plate (2×10^3 cells/well) in DMEM supplemented with 5% FBS and incubated for 24 hours (37° C.; 5% CO2). Following 24 hours of incubation the medium was replaced with DMEM containing 10% FBS. Cells were challenged with the tested compounds at serial concentrations for 72 hours. After incubation the number of HUVEC were counted by Coulter Counter and U87, and PANC02 cells were counted by XTT respectively.

HUVEC [2] = assay: Endothelial cell adhesion assay on fibrinogen coated plates; assay type: cell-based, human
Description: The ability of E-[c(RGDfk)2] and E-c(RGDfk) moieties (SEQ ID NOs: 2 and 41) in the conjugates to inhibit endothelial attachment to cellular matrix after conjugation, was assessed using an adhesion assay. Flat bottom 96-well culture plates (Nunc, Denmark) were coated with 0.5 μg/well fibrinogen overnight at 4° C. After washing three times with Phosphate buffered saline (PBS), the wells were blocked with 1% bovine serum albumin (BSA) for 1 hour at 37° C. and washed three times again with PBS. HUVEC were harvested in phosphate-buffered saline (137 mM NaCl, 2.7 mM KCl, 4.3 mM Na2HPO4, 1.4 mM KH2PO4, pH 7.3) with 2.5 mM EDTA and resuspended in EBM-2 serum-free media (Clonetics). HUVEC were incubated for 30 minutes, at room temperature, with the tested compounds. The treated HUVEC were plated at 5×10^4 cells per well and were allowed to attach for 1 hour at 37° C. After incubation, the unattached cells were removed by rinsing the wells with PBS. The attached cells were fixed with 3.7% formaldehyde, stained with 0.5% crystal violet and were imaged using Nikon TE2000E inverted microscope integrated with Nikon DS5 cooled CCD camera by 4× objective, brightfield technique. The number of attached cells was quantified with NIH ImageJ processing and analysis software. Non-specific binding was determined by adhesion of HUVEC cells, which were not incubated with any of the tested compounds, to BSA-coated plates.

[3] = Hydrodynamic diameter by Nanoparticle Tracking Analysis; assay type: physicochemical; settings: PTX loading of 2.3 mol % and -E-c(RGDfk) loading of 5 mol %; PBS; FIG. 9C
Description: The mean hydrodynamic diameter of the PGA conjugates was evaluated using a real time particle analyzer (NanoSight LM20™) containing a solid-state, single mode laser diode (<20 mW, 655 nm) configured to launch a finely focused beam through a 500 μl sample chamber. The tested conjugate was dissolved in PBS to a final concentrations of 9.9 mg/ml. The samples were then injected into the chamber by syringe and allowed to equilibrate to a unit temperature (23° C.) for 30 seconds. The particles dynamics were visualized at 30 frames per second (fps) for 60 seconds at 640×480 resolution by the device CCD camera. The paths the particles take under Brownian motion over time were analyzed using Nanoparticle Tracking Analysis (NTA) software. […] Each sample was measured three times in triplicates, and the results represent the mean diameter.

[4] = test system: mCherry-labeled U87 human osteosarcoma tumors; assay: In vivo accumulation of OG-labeled conjugates in tumors, confocal microscopy; parameters: species or system SCID mice; settings: i.v., 50 μM-RGD; tumors removed one hour after injection; FIG. 17A
Source text: SCID male were inoculated s.c. with 2×10^6 mCherry-labeled U87 human […] or with 5×10^6 mCherry-labeled MG-63 human osteosarcoma. […] One hour after injection, tumors were removed, dissected to thin slices and examined under Zeiss Meta LSM 510 confocal imaging system.
Cellular colocalization of OG labeled PGA-E-[c(RGDfk)2] (SEQ ID NO: 25) conjugate was monitored utilizing a Zeiss Meta LSM 510 confocal imaging systems with 40 oil objectives. All images were taken using a multi-track channel acquisition to prevent emission cross-talk between fluorescent dyes. Single XY, XZ plane-images were acquired in 1024×1024 resolution.

αvβ3 integrin receptor = molecular target: T1, αvβ3 integrin receptor (Homo sapiens, UniProt P05106+P06756); assay: αvβ3 interaction with fluorescently labeled conjugates in HUVEC; assay type: cell-based
T1 construct: endogenous in cells; host or cells: HUVEC
Description: A fluorescence probe, Oregon Green-cadaverine (OG), was conjugated to PGA conjugates through the free carboxylic groups (see Example 5 for synthesis description), in order to study the cellular uptake and trafficking.
HUVEC were plated onto 6 mm plates (5×10^5 cells/plate) in EBM-2 (Cambrex, USA) supplemented with 5% FBS. Following 24 hours of incubation (37° C.; 5% CO2), cells were challenged with either PGA-OG, PGA-c(RADfk)-OG (SEQ ID NO: 24) or PGA-E-[c(RGDfk)2]-OG (SEQ ID NO:25) diluted in EGM-2 medium for 5, 10, 15, 30 or 60 minutes. Cells were then washed in PBS (×3), harvested with PBS containing 2.5 mM EDTA and analyzed with the ImageStream 100 imaging flow cytometer (Amnis). Analysis was performed using IDEAS software.

Cathepsin B = Cathepsin B (Homo sapiens, UniProt P07858); assay: Release of PTX from conjugates in the presence of Cathepsin B; assay type: in vitro ADME
Description: The ability of Cathepsin B to cleave and therefore release PTX from PGA copolymer-E-c(RGDfk)2-PTX (SEQ ID NO:18) was assessed as follows:
Cathepsin B (5 U) was added last to a 1 ml solutions containing 3 mg of the tested conjugates and 20 mM sodium acetate, 2 mM EDTA and 5 mM DTT at a pH of 6 and at a temperature of 37° C. Solutions containing free PGA polymer and free PTX served as control. Sample aliquots (100 μl) were taken at various time points up to 72 hours, frozen and stored in liquid nitrogen, until assayed by HPLC (by Porous50 resin) and/or by Gel permeation chromatography (GPC; direct analysis of 50 μl aliquots). PGA polymer incubated in buffer alone (without addition of cathepsin B) served as an additional control to assess non-enzymatic hydrolytic cleavage. The amount of free PTX released from the tested compounds was assessed by HPLC (X=220 nm). Doxycycline was used as internal standard in all cases. In addition, an LC-MS analysis of the released compounds was also carried out to in order determine the major metabolites released. The MW of the conjugates was determined by diluting 50 μl aliquots of the conjugate containing solution to a final volume of 200 μl with PBS buffer and subjecting the aliquots to GPC analysis (Viscotek TDA detector).

HUVEC [5] = assay: Capillary-like tube formation assay; assay type: cell-based, human; settings: equivalent concentrations of 10 nM (PTX) and 19 nM (E-[c(RGDfk)2]); conjugate with 5 mol % E-[c(RGDfk)2], 2.6 mol % PTX; FIG. 16B
Description: The anti-angiogenesis activity of the conjugates was evaluated by the effect of the conjugates on the ability of HUVEC cells to form capillary-like tube structures.
The surface of 24-well plates was coated with Matrigel matrix (50 μl/well) (BD Biosciences, USA) on ice and was then allowed to polymerize at 37° C. for 30 minutes. HUVEC (3×10^4 cells) were challenged with the tested compounds, and were seeded on coated plates in the presence of complete EGM-2 medium. After 8 hours of incubation (37° C.; 5% CO2), wells were imaged using Nikon TE2000E inverted microscope integrated with Nikon DS5 cooled CCD camera by 4× objective, brightfield technique. During the tube formation assay endothelial cells directionally migrate to align, branch and form polygonal networks (i.e. tube like structures). The extent of capillary-like tube structures is inversely proportional to the anti-angiogenesis activity of the compounds.

HUVEC [6] = assay: Migration assay of HUVEC towards VEGF; assay type: cell-based, human; settings: equivalent concentrations of 100 nM PTX; conjugate with 5 mol % E-[c(RGDfk)2], 2.6 mol % PTX; FIG. 14
Description: The anti-angiogenesis activity of the conjugates was evaluated by examining the effect of the conjugates on the ability of HUVEC to migrate toward the Vascular Endothelial Growth Factor (VEGF).
Cell migration assay was performed using modified 8 μm Boyden chambers Transwells® (Costar Inc., USA) coated with 10 μg/ml fibronectin HUVEC (15×10^4 cells/100 μl) were challenged with the tested compounds that were added to the upper chamber of the transwells for 2 hours. Following incubation, cells were allowed to migrate to the underside of the chamber for 4 hours in the presence or absence of VEGF (20 ng/ml) in the lower chamber. Cells were then fixed and stained (Hema 3 Stain System; Fisher Diagnostics, USA). The stained migrated cells were imaged using Nikon TE2000E inverted microscope integrated with Nikon DS5 cooled CCD camera by 10× objective, brightfield illumination. Migrated cells from the captured images per membrane were counted using NIH image software. Migration was normalized to the percent of migration toward VEGF of HUVEC which were not incubated with any compound. The extent of migration is inversely proportional to the anti-angiogenesis activity of the compounds.

[7] = test system: PANC02 murine pancreatic tumor cells; assay: Cell proliferation assay, PANC02; assay type: cell-based
Description: as §1, §2

[8] = HUVEC proliferation, nM PTX, FIG. 13A (5 mol % E-[c(RGDfk)2], 2.6 mol % PTX) and FIG. 13B (monocyclic), read-out: IC50, bell shaped effect, higher value
[9] = HUVEC proliferation, nM PTX, FIG. 13A (5 mol % E-[c(RGDfk)2], 2.6 mol % PTX) and FIG. 13B (monocyclic), read-out: IC50, bell shaped effect, lower value
[10] = HUVEC, 72 hours, bis-cyclic RGD compounds (X = 2), NA = did not reach IC50 in the concentrations used, 'a -- b' = bell-shaped curve, read-out: IC50 (nM) of PGA- PTX-E-[c(RGDfk)2] (SEQ ID NO: 18) 2.6 mol % PTX, 5 mol % RGD

T1 sequence (P06756 31-889 limits assumed): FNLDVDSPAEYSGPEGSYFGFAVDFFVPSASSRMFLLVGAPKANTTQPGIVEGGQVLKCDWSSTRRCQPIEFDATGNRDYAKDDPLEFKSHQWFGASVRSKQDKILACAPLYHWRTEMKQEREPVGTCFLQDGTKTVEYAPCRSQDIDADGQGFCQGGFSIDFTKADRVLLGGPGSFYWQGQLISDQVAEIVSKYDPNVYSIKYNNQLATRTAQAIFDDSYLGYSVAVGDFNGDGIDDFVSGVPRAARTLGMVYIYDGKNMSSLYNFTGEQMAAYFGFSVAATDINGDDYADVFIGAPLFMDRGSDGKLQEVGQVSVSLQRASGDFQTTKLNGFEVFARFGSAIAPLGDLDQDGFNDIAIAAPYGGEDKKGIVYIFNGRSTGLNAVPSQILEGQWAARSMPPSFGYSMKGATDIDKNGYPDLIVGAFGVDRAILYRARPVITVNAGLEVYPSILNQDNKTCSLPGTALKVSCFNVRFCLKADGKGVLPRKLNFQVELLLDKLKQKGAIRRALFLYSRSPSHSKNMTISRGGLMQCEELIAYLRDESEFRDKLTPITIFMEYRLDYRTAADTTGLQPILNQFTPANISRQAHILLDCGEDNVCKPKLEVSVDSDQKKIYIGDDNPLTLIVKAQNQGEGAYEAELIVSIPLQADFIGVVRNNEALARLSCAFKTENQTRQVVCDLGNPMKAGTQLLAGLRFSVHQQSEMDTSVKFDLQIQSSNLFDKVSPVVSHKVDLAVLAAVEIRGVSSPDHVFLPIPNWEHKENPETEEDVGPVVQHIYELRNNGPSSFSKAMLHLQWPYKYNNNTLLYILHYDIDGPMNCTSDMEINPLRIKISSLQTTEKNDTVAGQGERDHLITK
T1 sequence (P06756 891-1048 limits assumed): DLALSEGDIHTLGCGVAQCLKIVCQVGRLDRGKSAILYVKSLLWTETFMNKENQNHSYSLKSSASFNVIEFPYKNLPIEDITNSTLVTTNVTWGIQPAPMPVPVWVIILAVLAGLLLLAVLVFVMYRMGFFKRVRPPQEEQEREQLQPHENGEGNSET
T1 sequence (P05106 27-788): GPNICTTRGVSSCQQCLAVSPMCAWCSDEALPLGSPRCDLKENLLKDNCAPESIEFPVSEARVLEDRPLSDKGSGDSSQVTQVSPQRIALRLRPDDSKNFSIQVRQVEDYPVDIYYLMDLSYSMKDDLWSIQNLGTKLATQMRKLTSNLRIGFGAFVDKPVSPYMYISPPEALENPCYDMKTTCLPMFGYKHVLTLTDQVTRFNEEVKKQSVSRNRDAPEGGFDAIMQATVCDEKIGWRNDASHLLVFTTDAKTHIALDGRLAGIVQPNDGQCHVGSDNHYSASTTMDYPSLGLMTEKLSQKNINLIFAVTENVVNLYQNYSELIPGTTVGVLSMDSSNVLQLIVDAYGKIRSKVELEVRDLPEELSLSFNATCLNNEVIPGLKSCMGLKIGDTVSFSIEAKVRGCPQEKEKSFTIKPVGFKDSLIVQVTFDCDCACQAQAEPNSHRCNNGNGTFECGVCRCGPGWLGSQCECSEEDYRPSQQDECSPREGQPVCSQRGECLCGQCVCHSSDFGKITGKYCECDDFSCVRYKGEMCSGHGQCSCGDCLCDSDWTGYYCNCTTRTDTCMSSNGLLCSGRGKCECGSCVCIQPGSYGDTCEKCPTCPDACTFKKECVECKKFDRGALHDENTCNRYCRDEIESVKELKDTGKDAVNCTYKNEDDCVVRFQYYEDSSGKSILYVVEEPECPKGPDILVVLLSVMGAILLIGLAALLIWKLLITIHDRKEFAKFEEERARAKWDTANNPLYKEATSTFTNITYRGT

For PGA-PTX-E-c(RGDfk), which IC50 (HUVEC [1]; [8]) is on record?
The IC50 was about 20 nM.

What about the IC50 (HUVEC [1]; [9]) of the same substance?
The IC50 was about 0.2 nM.

And the “inhibition of HUVEC adhesion to fibrinogen” value (HUVEC [2]; equivalent concentrations of 50 μM RGD, FIG. 15)?
The value was about 50%.

What about the mean hydrodynamic diameter [3] of the same substance?
The mean hydrodynamic diameter was “about 35 nm”.

Which results are given for PGA-E-[c(RGDfk)2]?
effect on HUVEC proliferation (HUVEC [1]; FIG. 12A): only at high concentrations; IC50 (HUVEC [1]; [10]): 2900 nM; IC50 (HUVEC [1]; HUVEC, 72 hours, bis-cyclic RGD compounds (X = 2), NA = did not reach IC50 in the concentrations used, 'a -- b' = bell-shaped curve, read-out: IC50 (nM) of PGA- PTX-E-[c(RGDfk)2] (SEQ ID NO: 18) 5 mol % PTX, 3.9 mol % RGD): 7000 nM; accumulation of the conjugate at the tumor site [4]: able to accumulate in the tumor tissue

Which “time at which conjugate-cell adherence was first observed” value (αvβ3 integrin receptor; ImageStream 100 imaging flow cytometer) does the source give for PGA-E-[c(RGDfk)2]-OG here?
Its value is 10 min.

And the “extent of binding / uptake by HUVEC” value (αvβ3 integrin receptor; OG fluorescence, FIGS. 11B, 11C)?
Its value is “higher uptake”.

What about the “accumulation of the conjugate at the tumor site” value [4] of the same substance?
The value was “high accumulation”.

With “PGA-Copolymer -E-c(RGDfk)2-Paclitaxel [PGA-PTX-E-[c(RGDfk)2]]” as the substance, how does the IC50 (HUVEC [1]; [8]) read?
Its IC50 is about 20 nM.

What about the IC50 (HUVEC [1]; [9]) of the same substance?
Its IC50 is about 0.2 nM.

And the IC50 (HUVEC [1]; [10])?
The IC50 was 25 nM.

What about the “adhesion inhibition compared with the monocyclic conjugate PGA-PTX-E-c(RGDfk)” value (HUVEC [2]; both loadings of the bis-cyclic conjugate) of the same substance?
The value was “inhibited the adhesion more effectively than the monocyclic RGDfk peptide conjugate”.

And the “adhesion inhibition compared with the other loading” value (HUVEC [2]; conjugate with 3.9 mol % E-[c(RGDfk)2] and 5.5 mol % PTX versus conjugate with 5 mol % E-[c(RGDfk)2] and 2.6 mol % PTX)?
Its value is “more effective than the second”.

What about the “PTX release kinetics compared to the other conjugates” value (Cathepsin B; conjugate with 3.9 mol % E-[c(RGDfk)2], 5.5 mol % PTX, pH 6, 37° C.) of the same substance?
The value was “slightly faster release kinetics”.

And the “PTX release compared with the conjugate of 2.6 mol % PTX, 5 mol % E-[c(RGDfk)2]” value (Cathepsin B; conjugate with 5.5 mol % PTX, 3.9 mol % E-[c(RGDfk)2], after 48 hours)?
Its value is “greater”.

What about the “inhibition of the formation of tubular structures of HUVEC” value (HUVEC [5]) of the same substance?
Its value is “about 40%”.

What about the “inhibition of the migration of HUVEC towards VEGF” value (HUVEC [6]) of the same substance?
The value was “about 40%”.

And the IC50 ([7]; PANC02, 72 hours, bis-cyclic RGD compounds (X = 2), NA = did not reach IC50 in the concentrations used, read-out: IC50 (nM) of PGA- PTX-E-[c(RGDfk)2] (SEQ ID NO: 18) 5 mol % PTX, 3.9 mol % RGD)?
The IC50 was 650 nM.

And the IC50 ([7]; nM PTX, equivalent doses, FIG. 12C, read-out: IC50 of PANC02 proliferation)?
The IC50 was about 650 nM.
